pIC50: −log10 of the molar value.
Experiments:
Stat5 [1] = system: Stat5; set-up: method as in PMID 31548294; settings: patients treated with enzalutamide (median 6 months); cited from earlier work
Stat5 [2] = test: Stat5 phosphorylation in K562 cells (immunoblot); type: cell-based, human; settings: 4 days
Description: (§1) In order to evaluate whether the phosphate group of IST5 is critical for IST5 activity in cell-based assays, we compared the potency of IST5 (Figure 4A) to that of IST5-M (IST5 without the phosphate group) (Figure 4B) in inhibiting phosphorylation of Stat5 in PC and CML cells. CML (K562) cells and PC (CWR22Rv1) cells were cultured for 4 days with increasing concentrations of IST5 and IST5-M (Figure 4C,D). […] Collectively, these finding indicate that IST5 and IST5-M have similar efficacies in inhibiting phosphorylation of Stat5 in both CML and PC cells.
(§2) Figure 4 IST5 and the IST5-derivative lacking the phosphate group (IST5-M), both, inhibit Stat5 phosphorylation in CML and prostate cancer cell line with high efficacy. (A), chemical structure of IST5-002 (IST5). (B), chemical structure of IST5-M (IST5 without the phosphate group. (C), IST5 and IST5-M both inhibit Stat5 phosphorylation in CML cells (K562) with high efficacy. K562 cells were treated with IST5 and IST5-M for 4 days at the concentrations indicated. Whole cell lysates (WCL) were immunoblotted with anti-pYStat5 mAb, anti-Stat5 mAb and anti-actin mAb as loading control. (D), IST5 and IST5-M, both, decrease Stat5 phosphorylation in PC cells (CWR22Rv1). CWR22Rv1 cells were treated with increasing concentrations of IST5 and IST5-M for 4 days. Stat5 was immunoprecipitated (IP) followed by immunoblotting (WB) with anti-pYStat5 mAb and anti-Stat5 mAb. Whole cell lysates (WCL) were immunoblotted with anti-actin mAb as loading control.
(§3) Cell pellets were solubilized in the lysis buffer (10 mM Tris-HCl (pH 7.6), 5 mM EDTA, 50 mM sodium chloride, 30 mM sodium pyrophosphate, 50 mM sodium fluoride, 1 mM sodium orthovanadate, 1% Triton X-100, 1 mM phenylmethylsulfonyl fluoride, 5 µg/mL aprotinin, 1 µg/mL pepstatin A and 2 µg/mL leupeptin), and protein concentrations of clarified cell lysates were determined by a simplified Bradford method (Bio-Rad, Hercules, CA, USA). The whole cell lysates were immunoprecipitated with polyclonal antibodies (Table S1) followed by incubation with protein A-Sepharose beads (GE Healthcare, Chicago, IL, USA). The cell lysates and immunoprecipitated proteins were separated on 4–12% SDS-PAGE (Life Technologies, Brown Deer, WI, USA) and transferred electrophoretically to polyvinylidene fluoride membrane (Millipore). For immunoblotting, blocking buffer was tris-buffered saline and tween 20 (TBST, 0.15 M NaCl; 0.1% Tween 20; 50 mM Tris, pH 8.0) with 3% bovine serum albumin (BSA). The immunoreaction with the specific antibodies (Table S1) was detected by horseradish peroxidase-conjugated secondary antibodies followed by enhanced chemiluminescence (GE Healthcare).

Stat5 [3] = molecular target: T1, Stat5 (Homo sapiens, UniProt P42229); test: Native-gel-based Stat5 dimerization assay, CWR22Rv1 cells; type: cell-based; settings: 1 µM, 6 h, Prl (10 nM) stimulated CWR22Rv1 cells, STAT5A-eYFP
T1 construct: expressed in transfected cells; host or cells: CWR22Rv1
T1 sequence (P42229 whole entry, species assumed): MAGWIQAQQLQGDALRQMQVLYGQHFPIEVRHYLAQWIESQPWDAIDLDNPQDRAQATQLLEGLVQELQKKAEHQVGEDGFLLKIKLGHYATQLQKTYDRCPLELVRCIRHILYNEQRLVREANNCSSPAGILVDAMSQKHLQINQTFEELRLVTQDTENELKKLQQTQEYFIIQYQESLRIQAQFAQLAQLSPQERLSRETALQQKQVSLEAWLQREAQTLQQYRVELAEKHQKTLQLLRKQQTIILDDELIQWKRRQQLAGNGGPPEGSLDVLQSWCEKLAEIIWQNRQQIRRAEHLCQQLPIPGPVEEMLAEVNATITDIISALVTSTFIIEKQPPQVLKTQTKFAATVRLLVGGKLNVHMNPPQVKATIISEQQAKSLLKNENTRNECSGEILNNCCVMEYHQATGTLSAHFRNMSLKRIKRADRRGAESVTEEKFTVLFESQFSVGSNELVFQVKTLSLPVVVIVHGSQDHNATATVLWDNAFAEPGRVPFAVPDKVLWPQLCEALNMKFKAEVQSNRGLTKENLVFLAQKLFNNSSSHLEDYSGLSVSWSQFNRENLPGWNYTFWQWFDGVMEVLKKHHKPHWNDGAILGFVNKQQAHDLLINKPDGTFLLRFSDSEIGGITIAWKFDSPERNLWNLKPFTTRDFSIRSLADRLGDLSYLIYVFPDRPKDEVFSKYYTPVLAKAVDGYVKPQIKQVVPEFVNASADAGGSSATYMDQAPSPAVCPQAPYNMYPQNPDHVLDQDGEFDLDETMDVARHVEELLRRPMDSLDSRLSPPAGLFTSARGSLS
From the text: Having established that IST5 and IST5-M both interrupt phosphorylation of Stat5, we next investigated the potency of IST5-M vs. IST5 in suppressing dimerization of Stat5 in PC cells. First, we performed a native Polyacrylamide Gel Electrophoresis (PAGE) based Stat5 dimerization assay established originally by Fahrenkamp et al., where CWR22Rv1 cells were transfected with STAT5A-eYFP (Stat5 wild type), STAT5A-N642H-eYFP (constitutive activated Stat5 by N642H mutation, as a positive control) or STAT3-eYFP (Stat3 wild type, as a negative control) constructs for 3 days (Figure 5A). CWR22Rv1 cells were starved for 16 h, pretreated with vanadate (1 mM) for 2 h, followed by treatment with vehicle, IST5 or IST5-M (1 µM) for 6 h and stimulation with Prl (10 nM) for 1 h.
Figure 5 Both IST5 and IST5-M suppress dimerization of Stat5 with similar efficacies in prostate cancer cells. (A), IST5 and IST5-M inhibit equally potently dimerization of Stat5 in native-gel-based Stat5 dimerization assay. […] Dimerization of Stat5 was analyzed by detection of the eYFP fluorescence of the native Coomassie gel. […] (E), differences in posttranslational modifications were detected between native and recombinant STAT5a using mass spectrometry. Native STAT5a from CWR22Rv1 cells and recombinant STAT5a from E. coli were gel-purified, digested using trypsin, and analyzed by bottom-up mass spectrometry. […]

Stat5 [4] = test: Stat5 phosphorylation in CWR22Rv1 cells (IP/immunoblot); type: cell-based, human; settings: 4 days
Description: as §1, §2, §3

Compound	PC biopsies with significantly elevated levels of Stat5 activation (Stat5 [1])	inhibition of Stat5 phosphorylation (Stat5 [2]; 2 µM, K562 cells)	pIC50 (Stat5 [2]; read-out: IC50, inhibition of Stat5 phosphorylation, K562 CML cells)	inhibition of Stat5 dimerization (Stat5 [3])	inhibition of Stat5 phosphorylation (Stat5 [4]; 2 µM, CWR22Rv1 cells)	pIC50 (Stat5 [4]; read-out: IC50, inhibition of Stat5 phosphorylation, CWR22Rv1 PC cells)
CNC(=O)c1ccc(N2C(=S)N(c3ccc(C#N)c(C(F)(F)F)c3)C(=O)C2(C)C)cc1F [enzalutamide]	10/10					
OCC1OC(n2cnc3c(NCc4ccccc4)ncnc32)C(O)C1O (stereo not drawn) [IST5-M]		75–90%	~5.96	inhibited robustly	60–75%	~5.89

— PMC7724566, “Prospects for Clinical Development of Stat5 Inhibitor IST5-002: High Transcriptomic Specificity in Prostate Cancer and Low Toxicity In Vivo” (Cancers, 2020)
